According to ChEMBL document CHEMBL1158717, “A cytotoxic carotenoid from the marine sponge Prianos osiros” (J Nat Prod, 2005):
Converted amounts (≈) assume the structure as drawn.

Tested on: HCT-116
Assay: Cytotoxicity against human HCT116 after 72 hrs by MTS assay
Type: functional, cell-based
Conditions: HCT-116, 72 h

`CC1=C(C#C/C(=C/C=C/C(C)=C/C=C/C=C(C)/C=C/C=C(\C)C(=O)/C=C2\C(C)(C)C[C@H](O)C[C@@]2(C)O)CO)C(C)(C)C[C@H](O)C1` gave an IC50 of 4.38 mg/L (≈ 7.12 µM).
